# Experimental data as given in ChEMBL document CHEMBL1125544, “Novel thiosemicarbazones derived from formyl- and acyldiazines: synthesis, effects on cell proliferation, and synergism with antiviral agents” (1992).
# Key:
# Details in all cases: Homo sapiens
# [1] = system: MT4; assay: Inhibition of proliferation of MT-4 cells.
# [2] = system: HuT78; assay: Inhibition of proliferation of HUT78 cells.
# [3] = system: MT4; assay: Compound was evaluated for inhibition of proliferation of MT-4 cells (in vitro)
# [4] = system: HuT78; assay: Compound was evaluated for inhibition of proliferation of HUT78 cells (in vitro)
# [5] = system: MT4; assay: Compound was evaluated for inhibition of proliferation of MT-4 cells(in vitro)
SMILES,IC50 [1],IC50 [2],IC50 [3],IC50 [4],IC50 [5]
CCC/C(=N\N=C(/S)N1CC2CCC(CC2)C1)c1cccnn1,0.084 µg/mL,0.062 µg/mL,–,–,–
C/C(=N\N=C(/S)N1CC2CCC(CC2)C1)c1cnccn1,0.0054 µg/mL,0.0069 µg/mL,–,–,–
C/C(=N\NC(=S)N1CCCC1)c1cnccn1,0.00019 µg/mL,0.00049 µg/mL,–,–,–
C/C(=N\N=C(/S)N(C)C)c1ccncn1,0.00049 µg/mL,0.00065 µg/mL,–,–,–
C/C(=N\N=C(/S)N(C)C)c1cccnn1,0.1 µg/mL,0.079 µg/mL,–,–,–
C/C(=N\NC(=S)N(C)C)c1ccccn1,–,–,0.00011 µg/mL,0.00055 µg/mL,–
C/C(=N\N=C(\N)S)c1ccc(C)nn1,1.49 µg/mL,1.58 µg/mL,–,–,–
C/N=C(\S)N/N=C(\C)c1cnccn1,0.46 µg/mL,0.88 µg/mL,–,–,–
C=CCNC(=S)N/N=C/c1cccnn1,3.1 µg/mL,6.22 µg/mL,–,–,–
CC/C(=N\N=C(/S)N1CCCCC1)c1cccnn1,0.03 µg/mL,0.071 µg/mL,–,–,–
CCC/C(=N\N=C(/S)N1CCCCCC1)c1cccnn1,0.088 µg/mL,0.098 µg/mL,–,–,–
CC/C(=N\N=C(/S)N1CCCC1)c1cccnn1,0.016 µg/mL,0.052 µg/mL,–,–,–
C/C(=N\N=C(/S)N1CCCCC1)c1ccncn1,0.0013 µg/mL,0.0037 µg/mL,–,–,–
C=CCN/C(S)=N/N=C(\C)c1cnccn1,0.014 µg/mL,0.036 µg/mL,–,–,–
C/C(=N\N=C(/S)N1CCCCC1)c1ccc(C)nn1,0.019 µg/mL,0.055 µg/mL,–,–,–
C/C(=N\N=C(/S)N1CCCCCC1)c1ccncn1,0.016 µg/mL,0.0022 µg/mL,–,–,–
C/C(=N\N=C(/S)N(C)C)c1ccc(C)nn1,0.12 µg/mL,0.088 µg/mL,–,–,–
C/C(=N\N=C(/S)NCc1ccccn1)c1ccc(C)nn1,1.64 µg/mL,2.82 µg/mL,–,–,–
C/C(=N\NC(N)=S)c1ccccn1,–,–,–,0.35 µg/mL,0.049 µg/mL
C/C(=N\N=C(\N)S)c1cccnn1,1.13 µg/mL,0.99 µg/mL,–,–,–
C/C(=N\N=C(/S)N1CCCCCC1)c1ccc(C)nn1,0.028 µg/mL,0.054 µg/mL,–,–,–
C/C(=N\N=C(\N)S)c1cnccn1,0.95 µg/mL,1.39 µg/mL,–,–,–
C/C(=N\NC(=S)N(C)C)c1cnccn1,0.00045 µg/mL,0.00062 µg/mL,–,–,–
C/C(=N\NC(=S)N1CCCCC1)c1cnccn1,0.00055 µg/mL,0.00052 µg/mL,–,–,–
N/C(S)=N/N=C/c1cccnn1,2.18 µg/mL,4.21 µg/mL,–,–,–

SMILES,IC50 [1],IC50 [2],IC50 [3],IC50 [4],IC50 [5]
C/C(=N\N=C(/S)N1CCCCCC1)c1cnccn1,0.0059 µg/mL,0.0083 µg/mL,–,–,–
C/C(=N\N=C(/S)N1CCCC1)c1ccncn1,0.00026 µg/mL,0.00031 µg/mL,–,–,–
C/C(=N\N=C(/S)NCc1ccccn1)c1cccnn1,0.87 µg/mL,2.01 µg/mL,–,–,–
C=CCN/C(S)=N/N=C(\C)c1ccc(C)nn1,1.47 µg/mL,2.81 µg/mL,–,–,–
C/N=C(\S)N/N=C(\C)c1ccc(C)nn1,1.52 µg/mL,2.15 µg/mL,–,–,–
CCC/C(=N\N=C(/S)N1CCCCC1)c1cccnn1,0.0012 µg/mL,0.0023 µg/mL,–,–,–
C/N=C(\S)N/N=C(\C)c1ccncn1,0.02 µg/mL,0.022 µg/mL,–,–,–
CC(N/N=C(\S)N1CCCCC1)c1cccnn1 (stereo not drawn),0.033 µg/mL,0.074 µg/mL,–,–,–
CC(N/N=C(\S)N1CCCC1)c1cccnn1 (stereo not drawn),0.016 µg/mL,0.068 µg/mL,–,–,–
C=CCN/C(S)=N/N=C(\C)c1ccncn1,0.081 µg/mL,0.031 µg/mL,–,–,–
CC(N/N=C(\S)N1CC2CCC(CC2)C1)c1cccnn1 (stereo not drawn),0.034 µg/mL,0.038 µg/mL,–,–,–
C/C(=N\N=C(/S)NCc1ccccn1)c1cnccn1,0.041 µg/mL,1.11 µg/mL,–,–,–
C/C(=N\N=C(/S)N1CC2CCC(CC2)C1)c1ccncn1,0.047 µg/mL,0.036 µg/mL,–,–,–
C/N=C(\S)N/N=C(\C)c1cccnn1,1.62 µg/mL,1.86 µg/mL,–,–,–
CC(N/N=C(\S)N1CCCCCC1)c1cccnn1 (stereo not drawn),0.028 µg/mL,0.04 µg/mL,–,–,–
C=CCN/C(S)=N/N=C(\C)c1cccnn1,1.28 µg/mL,2.65 µg/mL,–,–,–
C/C(=N\N=C(\N)S)c1ccncn1,0.14 µg/mL,0.82 µg/mL,–,–,–
CCC/C(=N\N=C(/S)N1CCCC1)c1cccnn1,0.036 µg/mL,0.068 µg/mL,–,–,–
C/C(=N\N=C(/S)N1CCCC1)c1ccc(C)nn1,0.036 µg/mL,0.073 µg/mL,–,–,–
C/C(=N\N=C(/S)NCc1ccccn1)c1ccncn1,0.018 µg/mL,0.24 µg/mL,–,–,–
CC/C(=N\N=C(/S)N1CCCCCC1)c1cccnn1,0.039 µg/mL,0.073 µg/mL,–,–,–
S=C(NCc1ccccn1)N/N=C/c1cccnn1,3.9 µg/mL,5.62 µg/mL,–,–,–
C/N=C(\S)N/N=C/c1cccnn1,2.42 µg/mL,4.52 µg/mL,–,–,–
CN(C)/C(S)=N/N=C/c1cccnn1,0.11 µg/mL,0.11 µg/mL,–,–,–
